Here are results for 18 compounds from patent US4413126A, “Preparation of isoquinoline derivatives useful as immune regulants” (Eli Lilly and Company, priority 1982, dated 1983).

Counter-ions that a name gives are not always drawn. Like-named read-outs stand apart in the source and are kept apart here.

One experiment deals with antibody production. Put plainly: Mouse Hemagglutinin assay, oral administration (pooled serum assay procedure). In kind it is in vivo, mouse (Swiss). Particulars: P.O., nine daily doses; for minimal effective dose: Mus musculus, po, read-out: MED (minimum effective dose: lowest drug dose producing 75 percent or greater antibody suppression). The procedure: Groups of five 20-gram, male, random-bred, Swiss mice received intravenous injections of 5×10^7 sheep red blood cells. The cells for these injections were prepared from lamb's blood (collected in Alsever's solution) by washing three times with 0.85 percent saline. Nine daily doses of each compound to be tested, solubilized in polyethylene glycol 400, were administered orally in 0.1 ml. doses, commencing three days prior to red blood cell injection. Several dose levels of each compound were employed, at 2-fold increments. A control group of mice, receiving a red blood cell injection and nine daily doses of vehicle instead of drug, was included. Six days after the antigen injections, the mice were bled by cardiac puncture and the blood from each 5-mouse group pooled. […] Following incubation of the trays for 3 hours at 37° C., the hemagglutination patterns were graded.

The subject of another experiment is antibody titer. The experiment can be described thus: Individual Serum Assay Procedure (mouse hemagglutinin, oral). In kind it is in vivo, mouse (Swiss). The note with it: read-out: Endpoint Dose (p < 0.05): lowest drug dose significantly lowering antibody titer.
In a further experiment the test system is GVH reaction. Put plainly: Graft-Versus-Host (GVH) Reaction. The experiment is classed as in vivo, mouse (C57BL×C3H). The note with it: for minimal effective dose: 312 h, read-out: Endpoint Dose (p < 0.05): lowest drug dose significantly lowering the spleen/body weight ratio. On the procedure:
In this test, parental (C57BL) mouse spleen cells are injected into mice of an F1 hybrid strain (C57BL×C3H). […] As a consequence, the recipient's spleen becomes enlarged. Immunosuppression prevents or reduces this enlargement. Thus, spleen weights provide a measure of the GVH reaction and its reduction under immunosuppression.
A modification of Simonsen's original procedure (Ann. N.Y. Acad. Sci., 73, 834 (1958) was employed. Large crops of spleen cells were obtained, without the generally employed manual teasing of spleens, by using Waring blendors with the cutting blades reversed. Two six-second blending periods buffeted the spleens (batches of 25 C57BL spleens in 25-ml. saline) sufficiently to free the cells from the connective tissue. The latter was removed by filtration through several thicknesses of cheesecloth. Cell suspensions prepared in this fashion were standardized, by means of Levy-Hausser chamber counts, to contain 6×10^8 nucleated cells per ml. Groups of ten 16-18 gram C57BL×C3H mice were injected intraperitoneally with 1 ml. of the donor cell suspension. The compounds were administered either orally (P.O.) or subcutaneously (S.C.) in a vehicle composed of saline containing 0.125% methylcellulose and 0.2% emulphor, commencing 3 days prior to cell injection and continuing daily for 13 days. Control animals received only cells and vehicle. The spleens were removed and weighed 10 days following cell injection, and the mg. spleen/gram body weight was calculated.
The compounds were administered at several dose levels and the mean spleen/body weight ratio at each dose level was compared to the control group which received only the vehicle. The p values (by Student's two-tail t Test) were determined as compared to the control group. […] The results obtained in the graft-versus-host reaction with the compounds of this invention and standard compounds are summarized in Table III.

The subject of experiment [1] is adjuvant-induced arthritis. The experiment can be described thus: Adjuvant-induced Arthritis Test in Rats: uninjected paw volume inflammation. In kind it is in vivo, rat (Lewis-Wistar). The note with it: days 11 through 25.
For experiment [2], the system named is adjuvant-induced arthritis. The experiment can be described thus: Adjuvant-induced Arthritis Test in Rats: bone damage by X-ray. In kind it is in vivo, rat (Lewis-Wistar). Particulars: X-ray day 25.
The mark [3] stands for this setting: P.O., ten daily doses, mouse, individual serum.
[4] abbreviates: po, P.O., daily for 13 days, mouse.

As for `O=c1c2cccc3cccc(c32)c2nc3cc(C(F)(F)F)ccc3n12` [11-trifluoromethyl, 11-(trifluoromethyl)-7H-benzimidazo[2,1-a]benz[de]isoquinoline-7-one], the “MED (minimum effective dose: lowest drug dose producing 75 percent or greater antibody suppression)” value with antibody production was 0.2 mg./kg. × 9. Also, the minimal effective dose in the experiment with antibody titer (setting [3]) was 0.4 mg/kg; in the experiment on GVH reaction (Mus musculus, po) it was 12.5 mg/kg; in the experiment on GVH reaction (sc, S.C., daily for 13 days, mouse), < 0.1 mg/kg. In addition, the “% Inhibition of uninjected paw volume inflammation (AUC)” value amounted to 85.8% in experiment [1] (Test 1, 100 mg./kg. P.O. × 24) and 55.9% in experiment [1] (Test 2, 50 mg./kg. P.O. × 24). Moreover, the “inhibition of bone damage, injected paws” value in experiment [2] (Test 1 (100 mg./kg. P.O. × 24)) was found to be 68%; in experiment [2] (Test 2 (50 mg./kg. P.O. × 24)) it was 66%. The “inhibition of bone damage, uninjected paws, compared to TB control group” value is 94% in experiment [2] (Test 1 (100 mg./kg. P.O. × 24)) and 88% in experiment [2] (Test 2 (50 mg./kg. P.O. × 24)).

With `O=c1c2cccc3cccc(c32)c2nc3ccc(Cl)cc3n12` [10-chloro, 10-chloro-7H-benzimidazo[2,1-a]benz[de]isoquinoline-7-one], the minimal effective dose with antibody production worked out at 3.1 mg/kg.

`O=c1c2cccc3cccc(c32)c2nc3ccc(Br)cc3n12` [10-bromo, 10-bromo-7H-benzimidazo[2,1-a]benz[de]isoquinoline-7-one]: the minimal effective dose with antibody production was found to be 12.5 mg/kg.

With `O=P1(N(CCCl)CCCl)NCCCO1` (stereo not shown) [Cyclophosphamide, reference compound], the minimal effective dose in the experiment on GVH reaction (setting [4]) came to 12.5 mg/kg.

Turning to `CN(Cc1cnc2nc(N)nc(N)c2n1)c1ccc(C(=O)N[C@@H](CCC(=O)O)C(=O)O)cc1` [Methotrexate, reference compound], the minimal effective dose in the experiment with GVH reaction (Mus musculus, po) came to 0.2 mg/kg.

Regarding `O=c1c2cccc3cccc(c32)c2nc3cc(Cl)ccc3n12` [11-chloro(p-toluenesulfonate salt)], the “MED (minimum effective dose: lowest drug dose producing 75 percent or greater antibody suppression)” value in the experiment on antibody production was determined as 6.25 mg./kg. × 9.

In the case of `O=c1c2cccc3cccc(c32)c2nc3cc(C(F)(F)F)ccc3n12` [11-trifluoromethyl(p-toluenesulfonate salt)], the “MED (minimum effective dose: lowest drug dose producing 75 percent or greater antibody suppression)” value in the experiment on antibody production is on record as 3.1 mg./kg. × 9.

With `O=c1c2cccc3cccc(c32)c2nc3cc(Br)ccc3n12` [11-bromo, 11-bromo-7H-benzimidazo[2,1-a]benz[de]isoquinoline-7-one], the minimal effective dose was 1.6 mg/kg in the experiment with antibody production, 12.5 mg/kg in the experiment with antibody titer (setting [3]) and < 25 mg/kg with GVH reaction (setting [4]).

Take `Cn1cnc([N+](=O)[O-])c1Sc1ncnc2nc[nH]c12` [Azathioprine, reference compound]: the minimal effective dose with antibody production and in the experiment on antibody titer (setting [3]) was 100 mg/kg throughout. Further, the “Endpoint Dose (p < 0.05): lowest drug dose significantly lowering the spleen/body weight ratio” value in the experiment on GVH reaction (P.O., daily for 13 days, mouse) was 12.5 mg./kg. × 13.

With `O=c1c2cccc3cccc(c32)c2nc3cc(F)ccc3n12` [11-fluoro, 11-fluoro-7H-benzimidazo[2,1-a]benz[de]isoquinoline-7-one], the minimal effective dose in the experiment with antibody production turned out to be 12.5 mg/kg.

With `C[n+]1c2ccc(Cl)cc2n2c(=O)c3cccc4cccc(c43)c21`, the minimal effective dose with antibody production was > 100 mg/kg.

As to `C[n+]1c2cc(C(F)(F)F)ccc2n2c(=O)c3cccc4cccc(c43)c21` [13-methyl-7-oxo-11-(trifluoromethyl)-7H-benzimidazo[2,1-a]benz[de]isoquinolinium 4-methylbenzenesulfonate], the minimal effective dose with antibody production is 1.6 mg/kg; in the experiment on antibody titer (Mus musculus), 12.5 mg/kg; in the experiment with GVH reaction (Mus musculus, po), 12.5 mg/kg.

In the case of `C[n+]1c2cc(Cl)ccc2n2c(=O)c3cccc4cccc(c43)c21`, in the experiment on antibody production, the minimal effective dose was 100 mg/kg.

With `O=c1c2cccc3cccc(c32)c2nc3cc(Cl)ccc3n12` [11-chloro, 11-chloro-7H-benzimidazo[2,1-a]benz[de]isoquinoline-7-one], the “MED (minimum effective dose: lowest drug dose producing 75 percent or greater antibody suppression)” value in the experiment on antibody production was 0.4 mg./kg. × 9. The minimal effective dose is 0.2 mg/kg in the experiment on antibody titer (setting [3]) and 12.5 mg/kg with GVH reaction (Mus musculus, po).

Turning to `CC(C(=O)O)c1cccc(Oc2ccccc2)c1` (stereo not shown) [Fenoprofen, reference compound], the “% Inhibition of uninjected paw volume inflammation (AUC)” value in experiment [1] (Test 1, 40 mg./kg. P.O. × 24) came to 44.0%; in experiment [1] (Test 2, 40 mg./kg. P.O. × 24) it was 60.7%.

`C[C@]12CCC(=O)C=C1CC[C@@H]1[C@@H]2C(=O)C[C@@]2(C)[C@H]1CC[C@]2(O)C(=O)CO` [Cortisone, reference compound]: the minimal effective dose in the experiment on GVH reaction (setting [4]) was 3.1 mg/kg.

In the case of `O=c1c2cccc3cccc(c32)c2nc3ccc(C(F)(F)F)cc3n12` [10-trifluoromethyl, 10-(trifluoromethyl)-7H-benzimidazo[2,1-a]benz[de]isoquinoline-7-one], the minimal effective dose was 25 mg/kg in the experiment on antibody production and < 25 mg/kg in the experiment on GVH reaction (setting [4]).

Regarding `C[n+]1c2ccc(C(F)(F)F)cc2n2c(=O)c3cccc4cccc(c43)c21`, the minimal effective dose in the experiment on antibody production came out at 100 mg/kg.
